From patent US9833497B2, “Human originated EGF domain proteins and use of the same” (CHENGDU SOURCEBIO LIMITED-LIABILITY COMPANY, priority 2013, dated 2017)

What was measured:
Type in all cases: cell-based
[1] = test system: Citrobacter diversus; test: MIC against Gram-negative bacteria: Citrobacter diversus; settings: 5×10^5 CFU/mL
Summary of the method: (§1)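 LB broth cultures at McFarland 0.5, spun down, resuspended, diluted to 5×10^5 CFU/mL final. Two-fold serial dilutions of purified human EGF domain proteins, triplicate. 37° C, 175 rpm shaking. Endpoint: no visible growth.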

[2] = test system: Klebsiella pneumonia; test: MIC against Gram-negative bacteria: Klebsiella pneumonia; settings: 5×10^5 CFU/mL
Summary of the method: as §1

[3] = test system: E. coli DH5α; test: Antibacterial activity: MIC and growth curve against E. coli DH5α in 96-well plate; settings: minimal inhibitory concentration against E. coli DH5α; 96-well plate, 5×10^5 CFU/mL, 37° C., judged after 8 h
Summary of the method: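 Log-phase bacteria (OD600 ~0.5) resuspended in LB at 5×10^5 CFU/mL, exposed to recombinant protein at 50, 25, 12.5 μg/mL final in triplicate, 37 °C shaking at 175 rpm. OD600 read every 30 min; MIC is lowest concentration showing no growth.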

[4] = test system: Enterobacter cloacae; test: MIC against Gram-negative bacteria: Enterobacter cloacae; settings: 5×10^5 CFU/mL
Summary of the method: as §1

[5] = test system: Proteus mirabilis; test: MIC against Gram-negative bacteria: Proteus mirabilis; settings: 5×10^5 CFU/mL
Summary of the method: as §1

[6] = test system: Pseudomonas aeruginosa; test: MIC against Gram-negative bacteria: Pseudomonas aeruginosa; settings: 5×10^5 CFU/mL
Summary of the method: as §1

[7] = test system: Serratia marcescens; test: MIC against Gram-negative bacteria: Serratia marcescens; settings: 5×10^5 CFU/mL
Summary of the method: as §1

[8] = test system: Proteus vulgaris; test: MIC against Gram-negative bacteria: Proteus vulgaris; settings: 5×10^5 CFU/mL
Summary of the method: as §1

[9] = test system: E. coli BL21; test: MIC against Gram-negative bacteria: E. coli BL21; settings: 5×10^5 CFU/mL
Summary of the method: as §1

[10] = test system: Aeromonas hydrophila; test: MIC against Gram-negative bacteria: Aeromonas hydrophila; settings: 5×10^5 CFU/mL
Summary of the method: as §1

[11] = test system: Moraxella catarrhalis; test: MIC against Gram-negative bacteria: Moraxella catarrhalis; settings: 5×10^5 CFU/mL
Summary of the method: as §1

[12] = Citrobacter diversus, 96-well plate, 37° C., 10 h
[13] = Klebsiella pneumonia, 96-well plate, 37° C., 10 h
[14] = Enterobacter cloacae, 96-well plate, 37° C., 10 h
[15] = Proteus mirabilis, 96-well plate, 37° C., 10 h
[16] = Pseudomonas aeruginosa, 96-well plate, 37° C., 10 h
[17] = Serratia marcescens, 96-well plate, 37° C., 10 h
[18] = Proteus vulgaris, 96-well plate, 37° C., 10 h
[19] = E. coli BL21, 96-well plate, 37° C., 10 h
[20] = Aeromonas hydrophila, 96-well plate, 37° C., 10 h
[21] = Moraxella catarrhalis, 96-well plate, 37° C., 10 h
[22] = 10 h cultivation at 37° C., two-fold serial dilution
[23] = Citrobacter diversus, 10 h cultivation at 37° C.
[24] = Klebsiella pneumonia, 10 h cultivation at 37° C.
[25] = Enterobacter cloacae, 10 h cultivation at 37° C.
[26] = Proteus mirabilis, 10 h cultivation at 37° C.
[27] = Pseudomonas aeruginosa, 10 h cultivation at 37° C.
[28] = Serratia marcescens, 10 h cultivation at 37° C.
[29] = Proteus vulgaris, 10 h cultivation at 37° C.
[30] = E. coli BL21, 10 h cultivation at 37° C.
[31] = Aeromonas hydrophila, 10 h cultivation at 37° C.
[32] = Moraxella catarrhalis, 10 h cultivation at 37° C.

Substance: PRT489 (CDNGGTWEQGQCACLPGFSGDRCQLQTRCQNG; listed as Homo sapiens)
- MIC against C. diversus ([1]; 96-well plate, 37° C., 10 h): 12.5 mg/L
- MIC against K. pneumonia ([2]; 96-well plate, 37° C., 10 h): 25 mg/L
- MIC [3]: 12.5 mg/L
- MIC against E. cloacae ([4]; 96-well plate, 37° C., 10 h): 12.5 mg/L
- MIC against P. mirabilis ([5]; 96-well plate, 37° C., 10 h): 50 mg/L
- MIC against P. aeruginosa ([6]; 96-well plate, 37° C., 10 h): 12.5 mg/L
- MIC against S. marcescens ([7]; 96-well plate, 37° C., 10 h): 12.5 mg/L
- MIC against P. vulgaris ([8]; 96-well plate, 37° C., 10 h): 25 mg/L
- MIC against E. coli BL21 ([9]; 96-well plate, 37° C., 10 h): 12.5 mg/L
- MIC against A. hydrophila ([10]; 96-well plate, 37° C., 10 h): 25 mg/L
- MIC against M. catarrhalis ([11]; 96-well plate, 37° C., 10 h): 25 mg/L

Substance: PRT698 (DVDECARSPPPCTYGRCENTEGSFQCVCPMGFQPNTAGSECE; listed as Homo sapiens)
- MIC C. diversus ([1]; 96-well plate, 37° C., 10 h): 25 mg/L
- MIC K. pneumonia ([2]; 96-well plate, 37° C., 10 h): 50 mg/L
- MIC [3]: 50 mg/L
- MIC E. cloacae ([4]; 96-well plate, 37° C., 10 h): 25 mg/L
- MIC P. mirabilis ([5]; 96-well plate, 37° C., 10 h): 25 mg/L
- MIC P. aeruginosa ([6]; 96-well plate, 37° C., 10 h): 12.5 mg/L
- MIC S. marcescens ([7]; 96-well plate, 37° C., 10 h): 12.5 mg/L
- MIC P. vulgaris ([8]; 96-well plate, 37° C., 10 h): 25 mg/L
- MIC E. coli BL21 ([9]; 96-well plate, 37° C., 10 h): 25 mg/L
- MIC A. hydrophila ([10]; 96-well plate, 37° C., 10 h): 12.5 mg/L
- MIC M. catarrhalis ([11]; 96-well plate, 37° C., 10 h): 50 mg/L

Substance: PRT446 (DVDECVGLQPVCPQGTTCINTGGSFQCVSPECPEGSGNVSYVKTSPFQCE; listed as Homo sapiens)
- MIC against C. diversus ([1]; 96-well plate, 37° C., 10 h): 12.5 mg/L
- MIC against K. pneumonia ([2]; 96-well plate, 37° C., 10 h): 50 mg/L
- MIC [3]: 12.5 mg/L
- MIC against E. cloacae ([4]; 96-well plate, 37° C., 10 h): 12.5 mg/L
- MIC against P. mirabilis ([5]; 96-well plate, 37° C., 10 h): 25 mg/L
- MIC against P. aeruginosa ([6]; 96-well plate, 37° C., 10 h): 12.5 mg/L
- MIC against S. marcescens ([7]; 96-well plate, 37° C., 10 h): 25 mg/L
- MIC against P. vulgaris ([8]; 96-well plate, 37° C., 10 h): 12.5 mg/L
- MIC against E. coli BL21 ([9]; 96-well plate, 37° C., 10 h): 12.5 mg/L
- MIC against A. hydrophila ([10]; 96-well plate, 37° C., 10 h): 50 mg/L
- MIC against M. catarrhalis ([11]; 96-well plate, 37° C., 10 h): 50 mg/L

Substance: PRT1305 (SANACSAFKCHHGQCHISDQGEPYCLCQPGFSGEHCQ; listed as Homo sapiens)
- MIC against C. diversus [1, 12]: 12.5 mg/L
- MIC against K. pneumonia [2, 13]: 50 mg/L
- MIC [3]: 12.5 mg/L
- MIC against E. cloacae [4, 14]: 12.5 mg/L
- MIC against P. mirabilis [5, 15]: 25 mg/L
- MIC against P. aeruginosa [6, 16]: 12.5 mg/L
- MIC against S. marcescens [7, 17]: 12.5 mg/L
- MIC against P. vulgaris [8, 18]: 25 mg/L
- MIC against E. coli BL21 [9, 19]: 50 mg/L
- MIC against A. hydrophila [10, 20]: 50 mg/L
- MIC against M. catarrhalis [11, 21]: 50 mg/L

Substance: PRT1125 (LCDQCVTSPGCLHGLCGEPGQCICTDGWDGELCD; listed as Homo sapiens)
- MIC C. diversus [1, 22]: 12.5 mg/L
- MIC K. pneumonia [2, 22]: 12.5 mg/L
- MIC [3]: 25 mg/L
- MIC E. cloacae [4, 22]: 12.5 mg/L
- MIC P. mirabilis [5, 22]: 12.5 mg/L
- MIC P. aeruginosa [6, 22]: 12.5 mg/L
- MIC S. marcescens [7, 22]: 25 mg/L
- MIC P. vulgaris [8, 22]: 12.5 mg/L
- MIC E. coli BL21 [9, 22]: 12.5 mg/L
- MIC A. hydrophila [10, 22]: 12.5 mg/L
- MIC M. catarrhalis [11, 22]: 12.5 mg/L

Substance: PRT1424 (CQMFCNQTACPADCDPNTQASCECPEGYILDDGFICT; listed as Homo sapiens)
- MIC against C. diversus [1, 23]: 25 mg/L
- MIC against K. pneumonia [2, 24]: 12.5 mg/L
- MIC [3]: 50 mg/L
- MIC against E. cloacae [4, 25]: 50 mg/L
- MIC against P. mirabilis [5, 26]: 25 mg/L
- MIC against P. aeruginosa [6, 27]: 50 mg/L
- MIC against S. marcescens [7, 28]: 25 mg/L
- MIC against P. vulgaris [8, 29]: 12.5 mg/L
- MIC against E. coli BL21 [9, 30]: 12.5 mg/L
- MIC against A. hydrophila [10, 31]: 12.5 mg/L
- MIC against M. catarrhalis [11, 32]: 50 mg/L

Substance: PRT609 (CHCSPVGSLSTQCDSYGRCSCKPGVMGDKCDRCQPGFHSLTEAGCRP; listed as Homo sapiens)
- MIC C. diversus ([1]; 96-well plate, 37° C., 10 h): 12.5 mg/L
- MIC K. pneumonia ([2]; 96-well plate, 37° C., 10 h): 25 mg/L
- MIC [3]: 50 mg/L
- MIC E. cloacae ([4]; 96-well plate, 37° C., 10 h): 50 mg/L
- MIC P. mirabilis ([5]; 96-well plate, 37° C., 10 h): 50 mg/L
- MIC P. aeruginosa ([6]; 96-well plate, 37° C., 10 h): 12.5 mg/L
- MIC S. marcescens ([7]; 96-well plate, 37° C., 10 h): 12.5 mg/L
- MIC P. vulgaris ([8]; 96-well plate, 37° C., 10 h): 25 mg/L
- MIC E. coli BL21 ([9]; 96-well plate, 37° C., 10 h): 25 mg/L
- MIC A. hydrophila ([10]; 96-well plate, 37° C., 10 h): 25 mg/L
- MIC M. catarrhalis ([11]; 96-well plate, 37° C., 10 h): 25 mg/L

Substance: PRT191 (PCLRKYKDFCIHGECKYVKELRAPSCICHPGYHGERCH; listed as Homo sapiens)
- MIC (μg/mL) C. diversus ([1]; C. diversus, 10 h cultivation at 37° C.): 25 µg/mL
- MIC (μg/mL) K. pneumonia ([2]; K. pneumonia, 10 h cultivation at 37° C.): 12.5 µg/mL
- MIC [3]: 12.5 mg/L
- MIC (μg/mL) E. cloacae ([4]; E. cloacae, 10 h cultivation at 37° C.): 25 µg/mL
- MIC (μg/mL) P. mirabilis ([5]; P. mirabilis, 10 h cultivation at 37° C.): 12.5 µg/mL
- MIC (μg/mL) P. aeruginosa ([6]; P. aeruginosa, 10 h cultivation at 37° C.): 12.5 µg/mL
- MIC (μg/mL) S. marcescens ([7]; S. marcescens, 10 h cultivation at 37° C.): 12.5 µg/mL
- MIC (μg/mL) P. vulgaris ([8]; P. vulgaris, 10 h cultivation at 37° C.): 50 µg/mL
- MIC (μg/mL) E. coli BL21 [9, 30]: 12.5 µg/mL
- MIC (μg/mL) A. hydrophila ([10]; A. hydrophila, 10 h cultivation at 37° C.): 12.5 µg/mL
- MIC (μg/mL) M. catarrhalis ([11]; M. catarrhalis, 10 h cultivation at 37° C.): 12.5 µg/mL

Substance: PRT27 (NACASGPCPPHADCRDLWQTFSCTCQPGYYGPGCV; listed as Homo sapiens)
- MIC (μg/mL) C. diversus [1, 12]: 50 µg/mL
- MIC (μg/mL) K. pneumonia [2, 13]: 25 µg/mL
- MIC [3]: 12.5 mg/L
- MIC (μg/mL) E. cloacae [4, 14]: 12.5 µg/mL
- MIC (μg/mL) P. mirabilis [5, 15]: 25 µg/mL
- MIC (μg/mL) P. aeruginosa [6, 16]: 50 µg/mL
- MIC (μg/mL) S. marcescens [7, 17]: 100 µg/mL
- MIC (μg/mL) P. vulgaris [8, 18]: 50 µg/mL
- MIC (μg/mL) E. coli BL21 [9, 19]: 25 µg/mL
- MIC (μg/mL) A. hydrophila [10, 20]: 25 µg/mL
- MIC (μg/mL) M. catarrhalis [11, 21]: 12.5 µg/mL

Substance: PRT1386 (GSRACPRDCRGRGRCENGVCVCNAGYSGEDC; listed as Homo sapiens)
- MIC against C. diversus [1, 23]: 12.5 mg/L
- MIC against K. pneumonia [2, 24]: 12.5 mg/L
- MIC [3]: 25 mg/L
- MIC against E. cloacae [4, 25]: 25 mg/L
- MIC against P. mirabilis [5, 26]: 12.5 mg/L
- MIC against P. aeruginosa [6, 27]: 25 mg/L
- MIC against S. marcescens [7, 28]: 12.5 mg/L
- MIC against P. vulgaris [8, 29]: 25 mg/L
- MIC against E. coli BL21 [9, 30]: 12.5 mg/L
- MIC against A. hydrophila [10, 31]: 12.5 mg/L
- MIC against M. catarrhalis [11, 32]: 12.5 mg/L
